Experimental data as given in patent US20240327381A1, “Compounds and Compositions for Selective Degradation of Engineered Proteins” (Celgene Corporation, priority 2023, published 2024).

How the values were obtained:
Helios = molecular target: T1, Helios (Homo sapiens, UniProt Q9UKS7); experiment: Helios degradation in Jurkat/Helios/HiBit cells (Nano-Glo luminescence); assay type: cell-based; details: 18 hr, read-out: Helios Jurkat Hibit IC50
T1 construct: endogenous in cells; host or cells: Jurkat cells, CRISPR/Cas9 knock-in of HiBit at the IKZF2 locus
T1 sequence (Q9UKS7 whole entry): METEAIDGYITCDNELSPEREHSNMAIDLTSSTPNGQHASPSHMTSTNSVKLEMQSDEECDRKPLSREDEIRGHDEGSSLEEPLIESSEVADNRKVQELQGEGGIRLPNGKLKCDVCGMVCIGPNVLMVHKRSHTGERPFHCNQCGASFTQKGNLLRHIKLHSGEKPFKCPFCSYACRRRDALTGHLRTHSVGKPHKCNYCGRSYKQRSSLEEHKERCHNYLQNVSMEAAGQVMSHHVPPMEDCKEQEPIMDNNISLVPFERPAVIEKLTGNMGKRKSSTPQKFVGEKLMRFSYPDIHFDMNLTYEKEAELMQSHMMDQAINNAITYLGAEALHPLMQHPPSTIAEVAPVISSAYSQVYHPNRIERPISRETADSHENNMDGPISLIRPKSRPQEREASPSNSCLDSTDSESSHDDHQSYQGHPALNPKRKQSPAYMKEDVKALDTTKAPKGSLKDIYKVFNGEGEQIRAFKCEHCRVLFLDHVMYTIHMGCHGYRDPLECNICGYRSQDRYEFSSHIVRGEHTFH
T1 sequence (Q96SW2 whole entry, further chain): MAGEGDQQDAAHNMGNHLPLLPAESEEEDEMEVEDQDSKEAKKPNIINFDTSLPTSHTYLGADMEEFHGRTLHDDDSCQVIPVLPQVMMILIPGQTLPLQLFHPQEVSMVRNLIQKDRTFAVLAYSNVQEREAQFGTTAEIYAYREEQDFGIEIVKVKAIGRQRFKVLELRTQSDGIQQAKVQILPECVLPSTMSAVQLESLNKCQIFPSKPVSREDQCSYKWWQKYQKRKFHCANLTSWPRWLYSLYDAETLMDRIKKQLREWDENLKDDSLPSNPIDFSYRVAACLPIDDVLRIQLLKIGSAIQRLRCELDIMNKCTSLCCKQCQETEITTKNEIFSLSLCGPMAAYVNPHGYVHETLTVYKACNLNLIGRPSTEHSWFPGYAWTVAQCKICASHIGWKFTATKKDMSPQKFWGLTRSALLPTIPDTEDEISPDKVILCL
T1 sequence (Q16531 whole entry partner): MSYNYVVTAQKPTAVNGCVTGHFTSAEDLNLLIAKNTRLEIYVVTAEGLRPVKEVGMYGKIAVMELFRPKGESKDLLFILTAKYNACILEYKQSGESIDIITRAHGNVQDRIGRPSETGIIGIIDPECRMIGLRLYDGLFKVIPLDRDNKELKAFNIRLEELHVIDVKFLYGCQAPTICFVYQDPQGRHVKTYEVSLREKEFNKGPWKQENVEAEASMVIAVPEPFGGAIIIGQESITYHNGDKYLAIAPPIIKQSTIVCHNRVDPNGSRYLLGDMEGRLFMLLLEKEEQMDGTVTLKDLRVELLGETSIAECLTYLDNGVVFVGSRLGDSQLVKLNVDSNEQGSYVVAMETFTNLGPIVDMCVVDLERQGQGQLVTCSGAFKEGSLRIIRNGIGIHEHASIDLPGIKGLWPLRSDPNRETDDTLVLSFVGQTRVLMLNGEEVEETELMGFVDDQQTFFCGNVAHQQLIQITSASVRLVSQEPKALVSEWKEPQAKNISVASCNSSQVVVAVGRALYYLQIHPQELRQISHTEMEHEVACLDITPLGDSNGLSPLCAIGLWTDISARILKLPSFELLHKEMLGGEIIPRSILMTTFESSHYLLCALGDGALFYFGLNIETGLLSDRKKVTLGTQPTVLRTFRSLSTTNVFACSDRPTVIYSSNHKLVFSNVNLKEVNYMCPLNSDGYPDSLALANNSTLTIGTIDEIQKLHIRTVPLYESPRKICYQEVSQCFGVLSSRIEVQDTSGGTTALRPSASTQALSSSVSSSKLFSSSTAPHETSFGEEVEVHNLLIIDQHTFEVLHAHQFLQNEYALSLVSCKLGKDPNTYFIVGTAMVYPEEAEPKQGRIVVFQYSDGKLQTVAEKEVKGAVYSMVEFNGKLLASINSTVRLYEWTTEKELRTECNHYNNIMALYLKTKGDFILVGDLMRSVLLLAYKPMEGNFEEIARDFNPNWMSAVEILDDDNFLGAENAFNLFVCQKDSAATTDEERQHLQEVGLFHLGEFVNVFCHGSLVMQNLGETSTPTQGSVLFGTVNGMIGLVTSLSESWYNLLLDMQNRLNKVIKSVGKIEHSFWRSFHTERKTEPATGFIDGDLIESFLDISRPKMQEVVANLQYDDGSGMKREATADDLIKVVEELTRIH
Description: For Helios, a stable Jurkat cell line was engineered using CRISPR/Cas9 to insert an in-frame HiBit tag into the carboxy-terminal reading frame of the IKZF2 gene. The sequence of human Helios is shown below:
Test compounds were transferred to 1536 well plates using an acoustic dispenser, and Jurkat/Helios/HiBit cells in DMEM/10% FCS were plated at 10,000 cells/well in a final volume of 5 μL. Cells were incubated at 37 C, 95% RH for 18 hr. Luciferase activity was measured by adding 2 μL/well of Nano-Glo reagent (Promega), incubating at RT for 30 min, and reading luminescence on a microtiter plate reader.
(§1) To determine the EC50 value of a compound for the degradation of a given substrate (concentration of compound that achieves half the maximum degradation observed), a four-parameter logistic model (sigmoidal dose-response model) (FIT=(A+{(B−A)/1+[(C/x)D]})) where C is the inflection point (EC50), D is the […], and A and B are the low and high limits of the fit, respectively) was used. All substrate degradation curves were processed and evaluated using ActivityBase (IDBS), a data analysis software package. Ymax is the % protein degraded (Ymin=100−Ymax and is minimum percent protein remaining).

[1] = molecular target: T2, IKZF1 ZNF2_ZNF3 Q1F degron-tagged CD19 CAR (Homo sapiens, UniProt Q13422, Q146F); experiment: Degradation of Q1F degron-tagged CD19 CAR in Jurkat cells (flow cytometry of CAR levels); assay type: cell-based; details: for DC50: Jurkat cells expressing CD19 CAR tagged with IKZF1 ZNF2_ZNF3 Q1F, 18 hours at 37° C., CAR levels normalized to untreated cells, read-out: Q1F Jurkat IC50; for Dmax: Ymax is the % protein degraded, Jurkat cells expressing Q1F degron-tagged CD19 CAR, 18 hours, read-out: Q1F Jurkat-YMax
T2 construct: ZNF2_ZNF3 Q1F degron (GERPFFCNQCGASFTQKGNLLRHIKLHSGEKPFKCHLCNYACRRRDALTGHLRTHS); fused on or other part: anti-CD19 scFv, CD28 transmembrane domain, 4-1BB costimulatory domain, CD3 zeta signaling domain (the CAR that carries the degron), and Nluc
T2 sequence (Q13422 whole entry Q146F, the tested form may be a part): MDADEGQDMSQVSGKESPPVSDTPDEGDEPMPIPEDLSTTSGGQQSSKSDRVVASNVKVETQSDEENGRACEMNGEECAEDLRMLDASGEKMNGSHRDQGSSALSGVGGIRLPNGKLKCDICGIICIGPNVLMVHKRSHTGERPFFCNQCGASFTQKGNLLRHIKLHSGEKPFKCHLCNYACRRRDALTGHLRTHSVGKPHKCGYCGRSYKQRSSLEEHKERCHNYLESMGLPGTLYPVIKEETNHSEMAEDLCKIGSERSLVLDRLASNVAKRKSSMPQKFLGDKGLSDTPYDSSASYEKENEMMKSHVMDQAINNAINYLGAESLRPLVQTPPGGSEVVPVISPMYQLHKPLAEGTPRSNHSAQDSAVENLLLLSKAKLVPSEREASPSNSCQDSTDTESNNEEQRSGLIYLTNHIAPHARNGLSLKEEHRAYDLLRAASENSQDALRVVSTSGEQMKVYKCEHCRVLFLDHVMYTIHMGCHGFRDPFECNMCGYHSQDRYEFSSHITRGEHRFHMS
Source text: Q1F degron-targeting compounds were screened in Jurkat cells engineered to express a IKZF1 ZNF2_ZNF3 Q1F. The cell line was generated with lentiviral vectors containing CD19 CARs tagged with IKZF1 ZNF2_ZNF3 QIF Nluc, which were transduced into Jurkat cells. The CD19 CAR comprised an anti-CD19 scFv, a CD28 transmembrane domain, a 4-1BB costimulatory domain, a CD3ζ signaling domain, and a ZNF2_ZNF3 Q1F degron (GERPFFCNQCGASFTQKGNLLRHIKLHSGEKPFKCHLCNYACRRRDALTGHLRTHS; SEQ ID NO: 1; Q1F substitution underlined). Transduced cells were treated with a titration of each small molecule or no drug and then incubated at 37° C. for 18 hours. Cells were washed and stained with appropriate staining reagent to measure CAR levels. The cells were incubated at 4° C. in the staining reagents for 20 mins and then washed 3 times before being read on the flow cytometer. CAR levels were normalized to cells that had not been treated with drug. EC50 and Ymin values were calculated using the resulting titration curve. This identified small molecules that potently degraded the Q1F degron-tagged CARs (Table 1).
as §1

SMILES | DC50 (Helios) [µM] | DC50 [1] [µM] | Dmax [1] [%]
O=C1CCC(N2Cc3c(cc(F)c(C4(O)CCN(Cc5ccc6ncsc6c5)CC4)c3F)C2=O)C(=O)N1 (centres unmarked) [Compound 12] | ≥ 10 | 0.00433 | 83.4
Cc1cc(Br)cnc1CN1CCC(O)(c2c(F)cc3c(c2F)CN(C2CCC(=O)NC2=O)C3=O)CC1 (centres unmarked) [Compound 13, 3-(5-(1-((5-bromo-3-methylpyridin-2-yl)methyl)-4-hydroxypiperidin-4-yl)-4,6-difluoro-1-oxoisoindolin-2-yl)piperidine-2,6-dione] | ≥ 10 | 0.086 | 62.4
O=C1CCC(N2Cc3c(cc(F)c(C4(O)CCN(Cc5coc(-c6cccs6)n5)CC4)c3F)C2=O)C(=O)N1 (centres unmarked) [Compound 14, 3-(4,6-difluoro-5-(4-hydroxy-1-((2-(thiophen-2-yl)oxazol-4-yl)methyl)piperidin-4-yl)-1-oxoisoindolin-2-yl)piperidine-2,6-dione] | ≥ 10 | 0.0224 | 66.9
O=C1CCC(N2Cc3c(cc(F)c(C4(O)CCN(Cc5ccc(C(F)(F)F)cc5F)CC4)c3F)C2=O)C(=O)N1 (centres unmarked) [Compound 20, 3-(4,6-difluoro-5-(1-(2-fluoro-4-(trifluoromethyl)benzyl)-4-hydroxypiperidin-4-yl)-1-oxoisoindolin-2-yl)piperidine-2,6-dione] | – | 0.0333 | 77.1
O=C1CCC(N2Cc3c(cc(F)c(C4(O)CCN(Cc5cc(F)c(C(F)(F)F)cc5F)CC4)c3F)C2=O)C(=O)N1 (centres unmarked) [Compound 21, 3-(5-(1-(2,5-difluoro-4-(trifluoromethyl)benzyl)-4-hydroxypiperidin-4-yl)-4,6-difluoro-1-oxoisoindolin-2-yl)piperidine-2,6-dione] | – | 0.0402 | 70.7
COc1ccc(-n2cccn2)c(CN2CCC(O)(c3c(F)cc4c(c3F)CN(C3CCC(=O)NC3=O)C4=O)CC2)c1 (centres unmarked) [Compound 23, 3-(4,6-difluoro-5-(4-hydroxy-1-(5-methoxy-2-(1H-pyrazol-1-yl)benzyl)piperidin-4-yl)-1-oxoisoindolin-2-yl)piperidine-2,6-dione] | – | 0.279 | 51.6
O=C1CCC(N2Cc3c(cc(F)c(C4(O)CCN(Cc5ncccc5Br)CC4)c3F)C2=O)C(=O)N1 (centres unmarked) [Compound 24, 3-(5-(1-((3-bromopyridin-2-yl)methyl)-4-hydroxypiperidin-4-yl)-4,6-difluoro-1-oxoisoindolin-2-yl)piperidine-2,6-dione] | – | 0.101 | 57.3
COc1ccnc(CN2CCC(O)(c3c(F)cc4c(c3F)CN(C3CCC(=O)NC3=O)C4=O)CC2)c1 (centres unmarked) [Compound 25, 3-(4,6-difluoro-5-(4-hydroxy-1-((4-methoxypyridin-2-yl)methyl)piperidin-4-yl)-1-oxoisoindolin-2-yl)piperidine-2,6-dione] | – | 0.0482 | 67.4
Cc1ccc(CN2CCC(O)(c3c(F)cc4c(c3F)CN(C3CCC(=O)NC3=O)C4=O)CC2)cc1 (centres unmarked) [Compound 27, 3-(4,6-difluoro-5-(4-hydroxy-1-(4-methylbenzyl)piperidin-4-yl)-1-oxoisoindolin-2-yl)piperidine-2,6-dione] | – | 0.0172 | 76.2
CN(CCN1CCC(O)(c2c(F)cc3c(c2F)CN(C2CCC(=O)NC2=O)C3=O)CC1)Cc1ccccc1 (centres unmarked) [Compound 30, 3-(5-(1-(2-(benzyl(methyl)amino)ethyl)-4-hydroxypiperidin-4-yl)-4,6-difluoro-1-oxoisoindolin-2-yl)piperidine-2,6-dione] | – | 0.192 | 57.8

Next, values leading:

DC50 (Helios) [µM] | DC50 [1] [µM] | Dmax [1] [%] | SMILES
≥ 10 | 0.00865 | 80.7 | C[C@@H](CO)CN1CCC(c2c(F)cc3c(c2F)CN(C2CCC(=O)NC2=O)C3=O)CC1 (mixture of isomers) [Compound 119, rac-3-(4,6-difluoro-5-(1-((R)-3-hydroxy-2-methylpropyl)piperidin-4-yl)-1-oxoisoindolin-2-yl)piperidine-2,6-dione]
≥ 10 | 0.0104 | 85.3 | Cn1cncc1CN1CCC(c2c(F)cc3c(c2F)CN(C2CCC(=O)NC2=O)C3=O)CC1 (centres unmarked) [Compound 1, 3-(4,6-difluoro-5-(1-((1-methyl-1H-imidazol-5-yl)methyl)piperidin-4-yl)-1-oxoisoindolin-2-yl)piperidine-2,6-dione]
≥ 10 | 0.00143 | 88.8 | O=C1CCC(N2Cc3c(cc(F)c(C4CCN(Cc5ccc(F)cc5)CC4)c3F)C2=O)C(=O)N1 (centres unmarked) [Compound 2, 3-(4,6-difluoro-5-(1-(4-fluorobenzyl)piperidin-4-yl)-1-oxoisoindolin-2-yl)piperidine-2,6-dione]
≥ 10 | 0.00437 | 78.7 | O=C1CCC(N2Cc3c(cc(F)c(C4CCN(C5CCC5)CC4)c3F)C2=O)C(=O)N1 (centres unmarked) [Compound 3, 3-(5-(1-cyclobutylpiperidin-4-yl)-4,6-difluoro-1-oxoisoindolin-2-yl)piperidine-2,6-dione]
≥ 10 | 0.105 | 82.3 | Cc1cc(CN2CCC(c3c(F)cc4c(c3F)CN(C3CCC(=O)NC3=O)C4=O)CC2)on1 (centres unmarked) [Compound 4, 3-(4,6-difluoro-5-(1-((3-methylisoxazol-5-yl)methyl)piperidin-4-yl)-1-oxoisoindolin-2-yl)piperidine-2,6-dione]
≥ 10 | 0.0057 | 85.8 | O=C1CCC(N2Cc3c(cc(F)c(C4CCN(Cc5ccc(-c6ccccc6)o5)CC4)c3F)C2=O)C(=O)N1 (centres unmarked) [Compound 5, 3-(4,6-difluoro-1-oxo-5-(1-((5-phenylfuran-2-yl)methyl)piperidin-4-yl)isoindolin-2-yl)piperidine-2,6-dione]
≥ 10 | 0.005 | 89.1 | O=C1CCC(N2Cc3c(cc(F)c(C4CCN(Cc5ccsc5)CC4)c3F)C2=O)C(=O)N1 (centres unmarked) [Compound 6, 3-(4,6-difluoro-1-oxo-5-(1-(thiophen-3-ylmethyl)piperidin-4-yl)isoindolin-2-yl)piperidine-2,6-dione]
≥ 10 | 0.000265 | 86.2 | O=C1CCC(N2Cc3c(cc(F)c(C4CCN(CC5CCOC5)CC4)c3F)C2=O)C(=O)N1 (centres unmarked) [Compound 7, 3-(4,6-difluoro-1-oxo-5-(1-((tetrahydrofuran-3-yl)methyl)piperidin-4-yl)isoindolin-2-yl)piperidine-2,6-dione]
≥ 10 | 0.00497 | 91.7 | O=C1CCC(N2Cc3c(cc(F)c(C4CCN(Cc5ccc(-n6ccnc6)cc5)CC4)c3F)C2=O)C(=O)N1 (centres unmarked) [Compound 8, 3-(5-(1-(4-(1H-imidazol-1-yl)benzyl)piperidin-4-yl)-4,6-difluoro-1-oxoisoindolin-2-yl)piperidine-2,6-dione]
≥ 10 | 0.00274 | 89.1 | O=C1CCC(N2Cc3c(cc(F)c(C4CCN(Cc5ccnn5-c5ccccc5)CC4)c3F)C2=O)C(=O)N1 (centres unmarked) [Compound 9, 3-(4,6-difluoro-1-oxo-5-(1-((1-phenyl-1H-pyrazol-5-yl)methyl)piperidin-4-yl)isoindolin-2-yl)piperidine-2,6-dione]
≥ 10 | 0.000202 | 90.7 | O=C1CCC(N2Cc3c(cc(F)c(C4CCN(CC(c5ccccc5)c5ccccc5)CC4)c3F)C2=O)C(=O)N1 (centres unmarked) [Compound 10, 3-(5-(1-(2,2-diphenylethyl)piperidin-4-yl)-4,6-difluoro-1-oxoisoindolin-2-yl)piperidine-2,6-dione]
